In ChEMBL document CHEMBL1201862, “PubChem BioAssay data set” (2004):
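Results reflect a 48-hour exposure of cells in 96-well plates to compound at five concentrations. GI50 is the concentration that inhibits growth by half.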 The source made the active and inactive calls. No stated cut-off is given here; in the data, active = GI50 up to about 1.1 µM and inactive = higher.

How the values were obtained:
Test in all cases: NCI anticancer screen, dose series, 48 h
[1] = system: 786-0
[2] = system: A498
[3] = system: A549
[4] = system: BT-549
[5] = system: CCRF-CEM
[6] = system: COLO 205
[7] = system: DU-145
[8] = system: EKVX
[9] = system: HCT-116
[10] = system: HOP-62
[11] = system: IGROV-1
[12] = system: K562
[13] = system: LOX IMVI
[14] = system: MDA-MB-435
[15] = system: NCI-H522
[16] = system: OVCAR-3
[17] = system: OVCAR-4
[18] = system: OVCAR-5
[19] = system: PC-3
[20] = system: RPMI-8226
[21] = system: SF-295
[22] = system: SK-MEL-5
[23] = system: SK-OV-3
[24] = system: SW-620
[25] = system: TK-10
[26] = system: UACC-257
[27] = system: UACC-62
[28] = system: ACHN
[29] = system: CAKI-1
[30] = system: HCC 2998
[31] = system: HCT-15
[32] = system: KM12
[33] = system: M14
[34] = system: MCF7
[35] = system: MDA-MB-231
[36] = system: MDA-N
[37] = system: Malme-3M
[38] = system: NCI-H226
[39] = system: NCI-H23
[40] = system: NCI-H460
[41] = system: NCI/ADR-RES
[42] = system: RXF 393
[43] = system: SF-268
[44] = system: SF-539
[45] = system: SNB-19
[46] = system: UO-31
[47] = system: HL-60
[48] = system: HOP-92
[49] = system: MOLT-4
[50] = system: OVCAR-8
[51] = system: SK-MEL-28
[52] = system: SK-MEL-2
[53] = system: SN12C
[54] = system: SNB-75
[55] = system: U-251

In the case of `COc1cc2c[n+](C)c3c4cc(OC)c(OC)cc4ccc3c2cc1OC`, the GI50 [1] is reported as > 58.5 µM (inactive), the GI50 [2] is reported as > 100 µM (inactive) and the GI50 [3] is reported as 58.7 µM (inactive). For the same molecule, the GI50 [4] was 20.4 µM (inactive), the GI50 [5] was 18.8 µM (inactive) and the GI50 [6] was 11.8 µM (inactive). The GI50 [7] was 25 µM (inactive), the GI50 [8] was > 63 µM (inactive) and the GI50 [9] was 68.5 µM (inactive). The GI50 [10] was 97.7 µM (inactive), the GI50 [11] was 23 µM (inactive) and the GI50 [12] was 16.6 µM (inactive). The GI50 [13] was 54 µM (inactive), the GI50 [14] was > 85.7 µM (inactive) and the GI50 [15] was 7.11 µM (inactive). The GI50 [16] was 29.3 µM (inactive), the GI50 [17] was > 38.5 µM (inactive) and the GI50 [18] was > 100 µM (inactive). The GI50 [19] was 74.1 µM (inactive), the GI50 [20] was 57.1 µM (inactive) and the GI50 [21] was 69 µM (inactive). The GI50 [22] was 32 µM (inactive), the GI50 [23] was 88.9 µM (inactive) and the GI50 [24] was > 66.1 µM (inactive). The GI50 [25] was > 100 µM (inactive), the GI50 [26] was 74.1 µM (inactive) and the GI50 [27] was > 82.8 µM (inactive).

With `Cc1cc(C)nc(NCCC(O)(P(=O)(O)O)P(=O)(O)O)n1` the GI50 [1] was > 100 µM (inactive), the GI50 [3] was > 100 µM (inactive) and the GI50 [28] was > 100 µM (inactive). For the same molecule, the GI50 [4] was > 100 µM (inactive), the GI50 [29] was > 100 µM (inactive) and the GI50 [6] was > 100 µM (inactive). For the same molecule, the GI50 [7] was > 100 µM (inactive), the GI50 [8] was > 100 µM (inactive) and the GI50 [30] was > 100 µM (inactive). The GI50 [9] was > 100 µM (inactive), the GI50 [31] was over 100 µM and the GI50 [10] was > 100 µM (inactive). For the same molecule, the GI50 [11] was > 100 µM (inactive), the GI50 [32] was > 100 µM (inactive) and the GI50 [13] was > 100 µM (inactive). For the same molecule, the GI50 [33] was > 100 µM (inactive), the GI50 [34] was 92.5 µM (inactive) and the GI50 [35] was > 100 µM (inactive). The GI50 [36] was > 100 µM (inactive), the GI50 [37] was > 100 µM (inactive) and the GI50 [38] was > 100 µM (inactive). The GI50 [39] was > 100 µM (inactive), the GI50 [40] was > 100 µM (inactive) and the GI50 [15] was > 100 µM (inactive). The GI50 [41] was > 100 µM (inactive), the GI50 [16] was 39.2 µM (inactive) and the GI50 [18] was > 100 µM (inactive). The GI50 [19] was > 100 µM (inactive), the GI50 [42] was > 100 µM (inactive) and the GI50 [43] was > 100 µM (inactive). The GI50 [21] was > 100 µM (inactive), the GI50 [44] was > 100 µM (inactive) and the GI50 [22] was > 100 µM (inactive). For the same molecule, the GI50 [23] was > 100 µM (inactive), the GI50 [45] was > 100 µM (inactive) and the GI50 [25] was > 100 µM (inactive). The GI50 [26] was > 100 µM (inactive), the GI50 [27] was > 100 µM (inactive) and the GI50 [46] was > 100 µM (inactive).

With `CN(C)CCCn1c(-c2cc(C(C)(C)C)c(O)c(C(C)(C)C)c2)cs/c1=N\c1ccccc1` the GI50 [2] was 1.94 µM (inactive), the GI50 [3] was 1.77 µM (inactive) and the GI50 [28] was 2.98 µM (inactive). The GI50 [4] was 3.13 µM (inactive), the GI50 [29] was 17.8 µM (inactive) and the GI50 [8] was 2.16 µM (inactive). The GI50 [30] was 1.85 µM (inactive), the GI50 [31] was 3.24 µM and the GI50 [47] was 0.1 µM (active). The GI50 [10] was 1.89 µM (inactive), the GI50 [48] was 2.26 µM (inactive) and the GI50 [32] was 1.91 µM (inactive). For the same molecule, the GI50 [33] was 1.72 µM (inactive), the GI50 [35] was 2.34 µM (inactive) and the GI50 [14] was 2.34 µM (inactive). For the same molecule, the GI50 [49] was 0.131 µM (active), the GI50 [38] was 1.98 µM (inactive) and the GI50 [39] was 1.68 µM (inactive). The GI50 [40] was 2.35 µM (inactive), the GI50 [41] was 1.79 µM (inactive) and the GI50 [16] was 1.61 µM (inactive). For the same molecule, the GI50 [17] was 2.09 µM (inactive), the GI50 [18] was 2.23 µM (inactive) and the GI50 [50] was 1.97 µM (inactive). For the same molecule, the GI50 [19] was 1.87 µM (inactive), the GI50 [20] was 1.4 µM (inactive) and the GI50 [42] was 2.17 µM (inactive). The GI50 [43] was 1.85 µM (inactive), the GI50 [21] was 1.79 µM (inactive) and the GI50 [44] was 1.75 µM (inactive). The GI50 [51] was 2.39 µM (inactive), the GI50 [52] was 3.06 µM (inactive) and the GI50 [23] was 1.96 µM (inactive). The GI50 [53] was 2.08 µM (inactive), the GI50 [45] was 2.14 µM (inactive) and the GI50 [54] was 3.88 µM (inactive). For the same molecule, the GI50 [24] was 76.6 µM (inactive), the GI50 [25] was 1.95 µM (inactive) and the GI50 [55] was 2.93 µM (inactive). The GI50 [26] was 1.47 µM (inactive), the GI50 [27] was 2.3 µM (inactive) and the GI50 [46] was 1.97 µM (inactive).
